The values that follow come from patent publication US5679689A, “Quinolone- and naphthyridonecarboxylic acid derivatives” (Bayer Aktiengesellschaft, priority 1994, dated 1997).

The subject of one data set is E. coli Neumann. In words: Minimum inhibitory concentration (MIC), serial dilution on Iso-Sensitest Agar. It counts as cell-based. The note with it: Escherichia coli, 37° C., about 20 hours. The method, then: (§1) In the following Tables 9 and 10, the minimum inhibitory concentration are shown as a measure of the antibacterial activity and the ID50 values as a measure of the interactions with mammalian DNA of a substance both for compounds according to the invention and for reference compounds from the prior art (EP 520 240).
(§2) The minimum inhibitory concentration (MIC) were determined by a serial dilution method on Iso-Sensitest Agar (Oxoid). For each test substance, a number of agar plates were prepared which, with doubled dilution in each case, contained decreasing concentrations of the active compound. The agar plates were inoculated using a multipoint inoculator (Denley). For inoculation, overnight cultures of the pathogens were used which had previously been diluted such that each inoculation point contained about […] colony-forming particles. The inoculated agar plates were incubated at 37° C. and the microorganism growth was read off after about 20 hours. The MIC value (μg/ml) indicates the lowest active compound concentration at which no growth could be detected using the naked eye.

Another data set relates to Staph. aureus ICB 25701. The data set is described as above. It counts as cell-based. The note with it: Staphylococcus aureus, ICB25701, 37° C., about 20 hours. The method, then:
as §1, §2

For another data set, the system named is Bac. fragilis ES 25. Described as above. The note with it: Bacteroides fragilis, ES25, 37° C., about 20 hours. It counts as cell-based. The method, then: as §2
The subject of the next data set is Ps. aeruginosa Walter. The data set is described as above. It counts as cell-based. Particulars: Pseudomonas aeruginosa, 37° C., about 20 hours. The method, then: as §2
The test system of another data set is Staph. aureus 133. The data set is described as above. Particulars: Staphylococcus aureus, 37° C., about 20 hours. It counts as cell-based. The method, then:
as §2

A short description of data set [1]: Inhibition of DNA synthesis in CHO-KI cells (interaction with mammalian DNA), fluorophotometric. The note with it: hamster, cho-k1 cells; concentration at which DNA synthesis in CHO-KI cells is inhibited by 50%; read-out: ID50 (the source's name). It counts as cell-based, Chinese hamster.
Excerpt: as §1
ID50 is understood as meaning the concentration of a substance at which the DNA synthesis in cells from ovaries of the Chinese hamster (CHO-KI) is inhibited by 50%. This value is determined over defined time intervals in decreasing dilution steps after incubation of the appropriate substances. To do this, the DNA synthesis in CHO-KI cells is determined in comparison to controls by means of fluorophotometric methods.

A word on the MIC: it is the lowest concentration that inhibits growth of the organism. A higher MIC goes with weaker potency.

≈ marks a conversion by molar mass, not a printed value. Where only a bound is given, the exact number is not on record here.

Turning to `NC12C=CC=CC1CN(c1c(F)cc3c(=O)c(C(=O)O)cn(C4CC4)c3c1F)C2` (stereo not drawn) [Example 2, 7-(3a-amino-1,2,3,7a-tetrahydroisoindol-2-yl)-1-cyclopropyl-6,8-difluoro-1,4-dihydro-4-oxo-3-quinolinecarboxylic acid], the MIC was no more than 0.015 µg/mL in the data set on E. coli Neumann; 2 µg/mL (≈ 5.01 µM) against Staph. aureus ICB 25701; 1 µg/mL (≈ 2.5 µM) with Bac. fragilis ES 25; 1 µg/mL (≈ 2.5 µM) against Ps. aeruginosa Walter; 0.06 µg/mL (≈ 0.15 µM) against Staph. aureus 133. Further, the IC50 in data set [1] is 32 µg/mL (≈ 80.1 µM).

In the case of `NC12C=CC=CC1CN(c1c(F)cc3c(=O)c(C(=O)O)cn(C4CC4)c3c1Cl)C2` (stereo not drawn) [Example 3, 7-(3a-amino-1,2,3,7a-tetrahydro-isoindol-2-yl)-8-chloro-1-cyclopropyl-6-fluoro-1,4-dihydro-4-oxo-3-quinolineearboxylic acid], the minimum inhibitory concentration (MIC) against E. coli Neumann was no more than 0.015 µg/mL; in the data set with Staph. aureus ICB 25701, 0.25 µg/mL (≈ 0.601 µM); with Bac. fragilis ES 25 it was 0.125 µg/mL (≈ 0.301 µM); in the data set on Ps. aeruginosa Walter, 0.5 µg/mL (≈ 1.2 µM); against Staph. aureus 133, no more than 0.015 µg/mL. Also, in data set [1], the IC50 was determined as 32 µg/mL (≈ 77 µM).

As to `COc1c(N2CC3C=CC=CC3(N)C2)c(F)cc2c(=O)c(C(=O)O)cn(C3CC3)c12` (stereo not drawn) [Example 4, 7-(3a-amino-1,2,3,7a-tetrahydro-isoindolo2-yl)-1-cyclopropyl-6-fluoro-1,4-dihydro-8-methoxy-4-oxo-3-quinolinecarboxylic acid], the MIC against E. coli Neumann was no more than 0.015 µg/mL; against Staph. aureus ICB 25701, 0.5 µg/mL (≈ 1.22 µM); in the data set with Bac. fragilis ES 25, 2 µg/mL (≈ 4.86 µM); with Ps. aeruginosa Walter, 0.5 µg/mL (≈ 1.22 µM); in the data set on Staph. aureus 133 it was no more than 0.015 µg/mL. In data set [1], the IC50 was greater than 64 µg/mL.

Regarding `NC12C=CC=CC1CN(c1c(F)cc3c(=O)c(C(=O)O)cn([C@@H]4C[C@@H]4F)c3c1F)C2` (stereo partly drawn) [Example 8, 7-(3a-amino-1,2,3,7a-tetrahydro-isoindol-2-yl)-6,8-difluoro-1-(cis-2-fluorocydopropyl)-1,4-dihydro-4-oxo-3-quinolineearboxylic acid], the MIC was no more than 0.015 µg/mL against E. coli Neumann; 0.5 µg/mL (≈ 1.2 µM) in the data set with Staph. aureus ICB 25701; 0.5 µg/mL (≈ 1.2 µM) in the data set on Bac. fragilis ES 25; 0.5 µg/mL (≈ 1.2 µM) against Ps. aeruginosa Walter; 0.03 µg/mL (≈ 0.0719 µM) in the data set with Staph. aureus 133. For the same compound, the IC50 in data set [1] worked out at 16 µg/mL (≈ 38.3 µM).

`NC12C=CC=CC1CN(c1nc3c(cc1F)c(=O)c(C(=O)O)cn3C1CC1)C2` (stereo not drawn) [Example 9, 7-(3a-amino-1,2,3,7a-tetrahydro-isoindol-2-yl)-1-cyclopropyl-6-fluoro-1,4-dihydro-4-oxo-1,8-naphthyridine-3-carboxylic acid]: the minimal inhibitory concentration (MIC) against E. coli Neumann was no more than 0.015 µg/mL; in the data set on Staph. aureus ICB 25701 it was 8 µg/mL (≈ 20.9 µM); in the data set on Bac. fragilis ES 25, 4 µg/mL (≈ 10.5 µM); against Ps. aeruginosa Walter it was 1 µg/mL (≈ 2.62 µM); with Staph. aureus 133, 0.06 µg/mL (≈ 0.157 µM). The IC50 in data set [1] was found to be 32 µg/mL (≈ 83.7 µM).

`CC1C=CC(N)C2CN(c3c(F)cc4c(=O)c(C(=O)O)cn(C5CC5)c4c3F)CC12` (stereo not drawn) [Ref. 1, 7(4-Amino-7-methyl-1,3,3a,4,7,7a-hexahydro-isoindol-2-yl)-1-cyclopropyl-6 8-difluoro-1,4-dihydro-4-oxo-3-quinolinecarboxylic acid, reference compound]: the minimal inhibitory concentration (MIC) with E. coli Neumann was found to be 0.015 µg/mL (≈ 0.0361 µM); against Staph. aureus ICB 25701, 0.06 µg/mL (≈ 0.144 µM); against Bac. fragilis ES 25, 0.5 µg/mL (≈ 1.2 µM); with Ps. aeruginosa Walter, 0.5 µg/mL (≈ 1.2 µM); in the data set on Staph. aureus 133, 0.015 µg/mL (≈ 0.0361 µM). Further, in data set [1], the IC50 stood at 0.015 µg/mL (≈ 0.0361 µM).

In the case of `COc1c(N2CC3C(C)C=CC(N)C3C2)c(F)cc2c(=O)c(C(=O)O)cn(C3CC3)c12` (stereo not drawn) [Ref. 2, 7(4-Amino-7-methyl-1,3,3a,4,7,7a-hexahydro-isoindol-2-yl)-1-cyclopropyl-6 fluoro-1,4-dihydro-8-methoxy-4-oxo-3-quinolinecarboxylic acid, reference compound], the MIC in the data set with E. coli Neumann came out at 0.015 µg/mL (≈ 0.0351 µM); with Staph. aureus ICB 25701 it was 0.015 µg/mL (≈ 0.0351 µM); in the data set with Bac. fragilis ES 25, 0.25 µg/mL (≈ 0.585 µM); with Ps. aeruginosa Walter it was 1 µg/mL (≈ 2.34 µM); against Staph. aureus 133, 0.015 µg/mL (≈ 0.0351 µM). In data set [1], the IC50 amounted to 0.1 µg/mL (≈ 0.234 µM).

Consider `CC1C=CC(N)C2CN(c3c(F)cc4c(=O)c(C(=O)O)cn(C5CC5)c4c3Cl)CC12` (stereo not drawn) [Ref. 3, 7(4-Amino-7-methyl-1,3,3a,4,7,7a-hexahydro-isoindol-2-yl)-8-chloro-1-cycl propyl-6-fluoro-1,4-dihydro-4-oxo-3-quinolinecarboxylic acid, reference compound], for which the MIC against E. coli Neumann was determined as 0.015 µg/mL (≈ 0.0347 µM); with Staph. aureus ICB 25701 it was 0.015 µg/mL (≈ 0.0347 µM); against Bac. fragilis ES 25, 0.125 µg/mL (≈ 0.289 µM); in the data set with Ps. aeruginosa Walter, 0.5 µg/mL (≈ 1.16 µM); in the data set with Staph. aureus 133, 0.015 µg/mL (≈ 0.0347 µM). For the same compound, in data set [1], the IC50 amounted to 0.1 µg/mL (≈ 0.232 µM).
